These results are taken from patent US20250290074A1, “TARGETED TREATMENT OF SPLICEOPATHY-INDUCED NEUROLOGICAL DISORDERS” (Auttx, LLC, priority 2022, published 2025).

Data set [1] deals with human hnRNP L (hsHNRNP L) mRNA. Put plainly: 5-point dose response (DRC) of ASOs, hnRNP L mRNA by branched DNA assay in BE(2)-M17 cells. In kind it is cell-based. Conditions: 24 h; for max. upregulation [%] (MV normalized hsHNRNP L/hsGAPDH): Lipofectamine3000, highest 120 nM, four 4-fold dilutions, bDNA, negative controls set to 100%; for pEC50: hsHNRNP L mRNA upregulation, XLfit. An excerpt: Data were generated in biological quadruplicates. […] No significant decrease in hsGAPDH mRNA levels was observed.
Details and data are shown in Table 9A-9B, FIG. 24, and FIG. 25A-25E. In some cases, there was dose dependent hsHNRNP L on-target mRNA upregulation to varying degrees when cells were transfected with ASO compounds of interest.

The next data set concerns hsHNRNP L mRNA. Put plainly: Time-course experiment, ASOs at 30 nM, hnRNP L mRNA by bDNA in BE(2)-M17 cells. The data set is classed as cell-based, Homo sapiens. To be noted: 30 nM ASO, mock controls set to 100%, incubations 24 h, 48 h, 72 h, time point not given. Here is the method: Lipofectamine3000 (LF3000) was again used as the transfection agent. The transfection mixture was prepared identically on three plates. […] In this case, no outliers were removed. Data were generated in biological quadruplicates.
FIG. 26 includes a comparison of results from this study next to results from Example 7. Observing the results after 24 h incubation, similar data from the analysis in Example 7 were reproduced here.

pEC50: −log10 of the molar value. Strand notation (5' to 3'): a small letter for the sugar, then the base; units joined by * are phosphorothioate-linked, units joined directly phosphodiester-linked; [ ] holds rarer units or linkages, { } end groups; capitals alone tell only the bases. e = 2'-O-(2-methoxyethyl) (MOE); [5mC] = 5-methylcytosine

As to “Skip-6A-10: ASO GTCCCATCAAACATACACTGCG (SEQ ID NO: 59), fully 2′-MOE, 5′-methyl C, phosphorothioate; exon 6A (antisense eG*eT*e[5mC]*e[5mC]*e[5mC]*eA*eT*e[5mC]*eA*eA*eA*e[5mC]*eA*eT*eA*e[5mC]*eA*e[5mC]*eT*eG*e[5mC]*eG; listed as Homo sapiens)”, in data set [1], the “max. upregulation [%] (MV normalized hsHNRNP L/hsGAPDH)” value is listed as 49.2% and the pEC50 (commonly the EC50 on a negative log10 scale, so that one unit is a factor of ten) was 8.24. Further, the “MV normalized hsHNRNP L/hsGAPDH” value with hsHNRNP L mRNA amounted to 42.1%.

Take “Skip-6A-5: ASO ATGGTTTTACAGTCATAAATAC (SEQ ID NO: 54), fully 2′-MOE, 5′-methyl C, phosphorothioate; upstream intron (antisense eA*eT*eG*eG*eT*eT*eT*eT*eA*e[5mC]*eA*eG*eT*e[5mC]*eA*eT*eA*eA*eA*eT*eA*e[5mC]; listed as Homo sapiens)”: in data set [1], the “max. upregulation [%] (MV normalized hsHNRNP L/hsGAPDH)” value is reported as 41.6% and the pEC50 was 8.14. The “MV normalized hsHNRNP L/hsGAPDH” value with hsHNRNP L mRNA turned out to be 67.3%.

“Skip-6A-16: ASO CTTCAACAGTGAGTTAGCACAG (SEQ ID NO: 65), fully 2′-MOE, 5′-methyl C, phosphorothioate; exon 6A (antisense e[5mC]*eT*eT*e[5mC]*eA*eA*e[5mC]*eA*eG*eT*eG*eA*eG*eT*eT*eA*eG*e[5mC]*eA*e[5mC]*eA*eG; listed as Homo sapiens)”: in data set [1], the “max. upregulation [%] (MV normalized hsHNRNP L/hsGAPDH)” value was 61.6% and the negative logarithm of the EC50 (pEC50) is 8.31. For the same substance, the “MV normalized hsHNRNP L/hsGAPDH” value in the data set with hsHNRNP L mRNA amounted to 53.2%.

For “Skip-6A-6: ASO TGCATCACATGGTTTTACAGTC (SEQ ID NO: 55), fully 2′-MOE, 5′-methyl C, phosphorothioate; upstream intron (antisense eT*eG*e[5mC]*eA*eT*e[5mC]*eA*e[5mC]*eA*eT*eG*eG*eT*eT*eT*eT*eA*e[5mC]*eA*eG*eT*e[5mC]; listed as Homo sapiens)”, in data set [1], the “max. upregulation [%] (MV normalized hsHNRNP L/hsGAPDH)” value came to 65.1% and the pEC50 is 8.21. Moreover, the “MV normalized hsHNRNP L/hsGAPDH” value in the data set with hsHNRNP L mRNA is 81.7%.

Regarding “Skip-6A-14: ASO TTAGCACAGTTCTGAAAGATGG (SEQ ID NO: 63), fully 2′-MOE, 5′-methyl C, phosphorothioate; exon 6A (antisense eT*eT*eA*eG*e[5mC]*eA*e[5mC]*eA*eG*eT*eT*e[5mC]*eT*eG*eA*eA*eA*eG*eA*eT*eG*eG; listed as Homo sapiens)”, in data set [1], the “max. upregulation [%] (MV normalized hsHNRNP L/hsGAPDH)” value amounted to 52.3% and the pEC50 is 8.19. Besides, the “MV normalized hsHNRNP L/hsGAPDH” value in the data set on hsHNRNP L mRNA is 55.8%.

In the case of “5UTR-V1-2: ASO TCCGCGACATGGCGGCGCAGAA (SEQ ID NO: 48), fully 2′-MOE, 5′-methyl C, phosphorothioate; hnRNP L 5′ UTR (antisense eT*e[5mC]*e[5mC]*eG*e[5mC]*eG*eA*e[5mC]*eA*eT*eG*eG*e[5mC]*eG*eG*e[5mC]*eG*e[5mC]*eA*eG*eA*eA; listed as Homo sapiens)”, the “max. upregulation [%] (MV normalized hsHNRNP L/hsGAPDH)” value in data set [1] is 16.2%.

In the case of “Skip-6A-1: ASO GTACACATCCGCTACAATTTTT (SEQ ID NO: 50), fully 2′-MOE, 5′-methyl C, phosphorothioate; upstream intron of hnRNP L exon 6A (antisense eG*eT*eA*e[5mC]*eA*e[5mC]*eA*eT*e[5mC]*e[5mC]*eG*e[5mC]*eT*eA*e[5mC]*eA*eA*eT*eT*eT*eT*eT; listed as Homo sapiens)”, in data set [1], the “max. upregulation [%] (MV normalized hsHNRNP L/hsGAPDH)” value was found to be 9.1% and the pEC50 is 7.82. The “MV normalized hsHNRNP L/hsGAPDH” value in the data set on hsHNRNP L mRNA amounted to 13.0%.

For the substance “Skip-6A-4: ASO TACAGTCATAAATACAAGTCAC (SEQ ID NO: 53), fully 2′-MOE, 5′-methyl C, phosphorothioate; upstream intron (antisense eT*eA*e[5mC]*eA*eG*eT*e[5mC]*eA*eT*eA*eA*eA*eT*eA*e[5mC]*eA*eA*eG*eT*e[5mC]*eA*e[5mC]; listed as Homo sapiens)”, in data set [1], the “max. upregulation [%] (MV normalized hsHNRNP L/hsGAPDH)” value was determined as 24.0% and the negative-log EC50 (pEC50) is 7.72. For the same substance, in the data set on hsHNRNP L mRNA, the “MV normalized hsHNRNP L/hsGAPDH” value is 26.9%.

Turning to “5UTR-V1-3: ASO GCAGCAGCCTCCGCGACATGGC (SEQ ID NO: 49), fully 2′-MOE, 5′-methyl C, phosphorothioate; hnRNP L 5′ UTR (antisense eG*e[5mC]*eA*eG*e[5mC]*eA*eG*e[5mC]*e[5mC]*eT*e[5mC]*e[5mC]*eG*e[5mC]*eG*eA*e[5mC]*eA*eT*eG*eG*e[5mC]; listed as Homo sapiens)”, the “max. upregulation [%] (MV normalized hsHNRNP L/hsGAPDH)” value in data set [1] was 22.4%.

As to “Skip-6A-17: ASO TGGACGCTTCAACAGTGAGTTA (SEQ ID NO: 66), fully 2′-MOE, 5′-methyl C, phosphorothioate; exon 6A (antisense eT*eG*eG*eA*e[5mC]*eG*e[5mC]*eT*eT*e[5mC]*eA*eA*e[5mC]*eA*eG*eT*eG*eA*eG*eT*eT*eA; listed as Homo sapiens)”, in data set [1], the “max. upregulation [%] (MV normalized hsHNRNP L/hsGAPDH)” value turned out to be 46.9% and the pEC50 was 7.98. Further, the “MV normalized hsHNRNP L/hsGAPDH” value in the data set on hsHNRNP L mRNA amounted to 64.5%.

Take “Skip-6A-12: ASO TGAAAGATGGCGTCCCATCAAA (SEQ ID NO: 61), fully 2′-MOE, 5′-methyl C, phosphorothioate; exon 6A (antisense eT*eG*eA*eA*eA*eG*eA*eT*eG*eG*e[5mC]*eG*eT*e[5mC]*e[5mC]*e[5mC]*eA*eT*e[5mC]*eA*eA*eA; listed as Homo sapiens)”: in data set [1], the “max. upregulation [%] (MV normalized hsHNRNP L/hsGAPDH)” value is on record as 36.6% and the pEC50 is 7.78. Further, the “MV normalized hsHNRNP L/hsGAPDH” value in the data set with hsHNRNP L mRNA is recorded as 14.5%.

For “Skip-6A-9: ASO TCAAACATACACTGCGACCCTG (SEQ ID NO: 58), fully 2′-MOE, 5′-methyl C, phosphorothioate; upstream intron/exon (antisense eT*e[5mC]*eA*eA*eA*e[5mC]*eA*eT*eA*e[5mC]*eA*e[5mC]*eT*eG*e[5mC]*eG*eA*e[5mC]*e[5mC]*e[5mC]*eT*eG; listed as Homo sapiens)”, in data set [1], the “max. upregulation [%] (MV normalized hsHNRNP L/hsGAPDH)” value is reported as 40.2% and the pEC50 was 8.15. Besides, the “MV normalized hsHNRNP L/hsGAPDH” value in the data set with hsHNRNP L mRNA is reported as 31.3%.

In the case of “Skip-6A-3: ASO TAAATACAAGTCACGGTACACA (SEQ ID NO: 52), fully 2′-MOE, 5′-methyl C, phosphorothioate; upstream intron (antisense eT*eA*eA*eA*eT*eA*e[5mC]*eA*eA*eG*eT*e[5mC]*eA*e[5mC]*eG*eG*eT*eA*e[5mC]*eA*e[5mC]*eA; listed as Homo sapiens)”, in data set [1], the “max. upregulation [%] (MV normalized hsHNRNP L/hsGAPDH)” value was found to be 22.1% and the pEC50 is 8.03. Further, the “MV normalized hsHNRNP L/hsGAPDH” value in the data set with hsHNRNP L mRNA came out at 29.0%.

As to “5UTR-V1-1: ASO ATGGCGGCGCAGAACCCGCCTC (SEQ ID NO: 47), fully 2′-MOE, 5′-methyl C, phosphorothioate; hnRNP L 5′ UTR (antisense eA*eT*eG*eG*e[5mC]*eG*eG*e[5mC]*eG*e[5mC]*eA*eG*eA*eA*e[5mC]*e[5mC]*e[5mC]*eG*e[5mC]*e[5mC]*eT*e[5mC]; listed as Homo sapiens)”, the “max. upregulation [%] (MV normalized hsHNRNP L/hsGAPDH)” value in data set [1] is 11.4%.

For the substance “Skip-6A-2: ASO AGTCACGGTACACATCCGCTAC (SEQ ID NO: 51), fully 2′-MOE, 5′-methyl C, phosphorothioate; upstream intron (antisense eA*eG*eT*e[5mC]*eA*e[5mC]*eG*eG*eT*eA*e[5mC]*eA*e[5mC]*eA*eT*e[5mC]*e[5mC]*eG*e[5mC]*eT*eA*e[5mC]; listed as Homo sapiens)”, in data set [1], the “max. upregulation [%] (MV normalized hsHNRNP L/hsGAPDH)” value was 7.2% and the pEC50 was 7.73. Besides, the “MV normalized hsHNRNP L/hsGAPDH” value in the data set on hsHNRNP L mRNA was found to be 1.8%.

In the case of “Skip-6A-8: ASO ATACACTGCGACCCTGCATCAC (SEQ ID NO: 57), fully 2′-MOE, 5′-methyl C, phosphorothioate; upstream intron/exon (antisense eA*eT*eA*e[5mC]*eA*e[5mC]*eT*eG*e[5mC]*eG*eA*e[5mC]*e[5mC]*e[5mC]*eT*eG*e[5mC]*eA*eT*e[5mC]*eA*e[5mC]; listed as Homo sapiens)”, in data set [1], the “max. upregulation [%] (MV normalized hsHNRNP L/hsGAPDH)” value is listed as 18.0% and the pEC50 is 8.07. Moreover, the “MV normalized hsHNRNP L/hsGAPDH” value in the data set on hsHNRNP L mRNA worked out at 26.0%.

As for “Skip-6A-18: ASO TACCATTGGACGCTTCAACAGT (SEQ ID NO: 67), fully 2′-MOE, 5′-methyl C, phosphorothioate; exon 6A (antisense eT*eA*e[5mC]*e[5mC]*eA*eT*eT*eG*eG*eA*e[5mC]*eG*e[5mC]*eT*eT*e[5mC]*eA*eA*e[5mC]*eA*eG*eT; listed as Homo sapiens)”, in data set [1], the “max. upregulation [%] (MV normalized hsHNRNP L/hsGAPDH)” value amounted to 47.3% and the negative logarithm of the EC50 (pEC50) is 8.04. The “MV normalized hsHNRNP L/hsGAPDH” value in the data set on hsHNRNP L mRNA is given as 42.7%.

On to “Skip-6A-13: ASO CAGTTCTGAAAGATGGCGTCCC (SEQ ID NO: 62), fully 2′-MOE, 5′-methyl C, phosphorothioate; exon 6A (antisense e[5mC]*eA*eG*eT*eT*e[5mC]*eT*eG*eA*eA*eA*eG*eA*eT*eG*eG*e[5mC]*eG*eT*e[5mC]*e[5mC]*e[5mC]; listed as Homo sapiens)”, for which, in data set [1], the “max. upregulation [%] (MV normalized hsHNRNP L/hsGAPDH)” value turned out to be 53.3% and the pEC50 is 8.40. Besides, in the data set with hsHNRNP L mRNA, the “MV normalized hsHNRNP L/hsGAPDH” value is 56.0%.

In the case of “Skip-6A-15: ASO AGTGAGTTAGCACAGTTCTGAA (SEQ ID NO: 64), fully 2′-MOE, 5′-methyl C, phosphorothioate; exon 6A (antisense eA*eG*eT*eG*eA*eG*eT*eT*eA*eG*e[5mC]*eA*e[5mC]*eA*eG*eT*eT*e[5mC]*eT*eG*eA*eA; listed as Homo sapiens)”, in data set [1], the “max. upregulation [%] (MV normalized hsHNRNP L/hsGAPDH)” value worked out at 55.8% and the pEC50 was 8.13. For the same substance, the “MV normalized hsHNRNP L/hsGAPDH” value in the data set with hsHNRNP L mRNA is recorded as 63.4%.
